The structures appear in SMILES notation. Records with an inconclusive call do not appear. Calls of active or inactive are those of the source. The rule behind the calls is not given here.

The data set concerns S. typhimurium/E. coli reverse mutation, colony counts. The data set can be described thus: Bacterial reverse mutation test (aka Ames test) summary data. Put shortly:
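Revertant colony counts on plates, compared with untreated controls, after about two days of growth. Exposure with or without liver S9 (rat/hamster/mouse), dose range per strain, 20-min 37° C preincubation or direct plate incorporation. Strains: his⁻ Salmonella, trp⁻ E. coli WP2 uvrA pKM101.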
On to `Nc1ccc(-c2ccc(N)cc2S(=O)(=O)O)c(S(=O)(=O)O)c1`, for which the outcome was “inactive; negative”. For `CC(C)[N+](=O)[O-]` the value was “active; positive”; for `Oc1ccc2ccccc2c1N=Nc1ccccc1`, “active; positive”.

With `ClC(Br)Br`, the outcome is “active; weakly positive”. Turning to `CN1CCC[C@H]1c1cccnc1`, the outcome is “inactive; negative”. `S=C([S-])NCCNC(=S)[S-].[Zn+2]`: the outcome is “inactive; negative”.

`Clc1cc(Cl)c(Cl)cc1Cl`: the outcome was “inactive; negative”. Take `CNC(=O)NC`: the outcome is “inactive; negative”.

As to `CC(C)(Cl)[N+](=O)[O-]`, the outcome was “active; weakly positive”.

With `CNNCc1ccc(C(=O)NC(C)C)cc1`, the outcome was “inactive; negative”. As for `O=C(O)CNCP(=O)(O)O`, the entry is “inactive; negative”; as for `CCOS(C)(=O)=O`, “active; positive”.

Take `C[CH2][Hg][S]c1ccccc1C(=O)O`: the outcome is “inactive; negative”. In the case of `Clc1ccc(C(c2ccc(Cl)cc2)c2ccc(Cl)cc2)cc1`, the outcome is “inactive; negative”. For `COc1ccc2cc3[n+](cc2c1OC)CCc1cc2c(cc1-3)OCO2`, the outcome was “inactive; negative”.

Take `O=C([O-])c1ccccn1.O=C([O-])c1ccccn1.O=C([O-])c1ccccn1.[Cr+3]`: the outcome is “inactive; negative”.

As to `C=O`, the outcome is “active; positive”. For `Cc1ccccc1O` the value was “inactive; negative”; for `O=C/C=C/O`, “inactive; negative”. For `CO/N=C(\C(=O)N[C@@H]1C(=O)N2C(C(=O)O)=C(COC(N)=O)CS[C@H]12)c1ccco1` the value was “inactive; negative”; for `C(=NC1CCCCC1)=NC1CCCCC1`, “inactive; negative”; for `C=C(C)C(=O)OCCCC`, “inactive; negative”.

Take `CCC[CH2][Sn]([CH2]CCC)([O]C(C)=O)[O]C(C)=O`: the outcome was “inactive; negative”. As for `CCCCCc1cc(O)c2c(c1)OC(C)(C)[C@@H]1CCC(C)=C[C@@H]21`, the entry is “inactive; negative”. With `CCCN(CCC)CCC`, the outcome is “inactive; negative”.

For the molecule `CC(C)(c1cc(Br)c(O)c(Br)c1)c1cc(Br)c(O)c(Br)c1`, the outcome was “inactive; negative”. For `c1ccc(N=NNc2ccccc2)cc1` the value was “active; positive”; for `CCN(CC)CC`, “inactive; negative”. `NC(=O)CCCCC(N)=O`: the outcome was “inactive; negative”. As for `Brc1c(Br)c(Br)c(Br)c(Br)c1Br`, the entry is “inactive; negative”; as for `[O]=[W](=[O])=[O]`, “inactive; negative”; as for `Oc1cc(Cl)c(Cl)c(Cl)c1`, “inactive; negative”. For `C=C(C)C1CC=C(C)C(OC(C)=O)C1` (stereo not given) the value was “inactive; negative”; for `CN[C@@H]1[C@H](O[C@H]2[C@H](O[C@H]3[C@H](O)[C@@H](O)[C@H](NC(=N)N)[C@@H](O)[C@@H]3N=C(N)N)O[C@@H](C)[C@]2(O)C=O)O[C@@H](CO)[C@H](O)[C@H]1O`, “active; weakly positive”. `Cc1ccc(C)o1`: the outcome is “inactive; negative”.

Consider `C=CCc1ccc2c(c1)OCO2`, for which the outcome was “inactive; negative”. As for `CCCCNCC`, the entry is “inactive; negative”; as for `COc1cc(-c2ccc(N=Nc3cc(S(=O)(=O)O)c4ccccc4c3O)c(OC)c2)ccc1N=Nc1cc(S(=O)(=O)O)c2ccccc2c1O`, “inactive; negative”; as for `O=NN1CCCCC1`, “active; positive”. For `CCCCCCCCS(=O)C(C)Cc1ccc2c(c1)OCO2` (stereo not given) the value was “inactive; negative”; for `CC(C)(C)CC(C)(C)c1ccc(OCCOCC[N+](C)(C)Cc2ccccc2)cc1`, “inactive; negative”; for `Nc1ccc(-c2ccccc2)cc1`, “active; positive”. As for `CC(C)(C#N)C(C)(C)C#N`, the entry is “inactive; negative”; as for `COc1ccc([N+](=O)[O-])cc1N`, “active; positive”. Consider `Cc1ccc(C)c(N)c1`, for which the outcome was “active; positive”. In the case of `O=C1N(CO)C(O)C(O)N1CO` (stereo not given), the outcome is “active; positive”.

In the case of `CC1(C)C(=O)N(Cl)C(=O)N1Cl`, the outcome was “inactive; negative”. For `Brc1ccc(-c2ccccc2)cc1` the value was “inactive; negative”; for `CC(C)=O`, “inactive; negative”; for `Nc1cc(Cl)cc(Cl)c1`, “inactive; negative”. For `NCCC(=O)O` the value was “inactive; negative”.

In the case of `Nc1ccc(Sc2ccc(N)cc2)cc1`, the outcome is “active; positive”. As for `CCCCC(CC)COCCC#N` (stereo not given), the entry is “inactive; negative”; as for `CC12CCC(CC1)C(C)(C)O2`, “inactive; negative”.

As for `Cc1ccc(N)c(N)c1`, the outcome is “active; positive”. For `O=C(c1ccccc1)C(O)c1ccccc1` (stereo not given) the value was “active; weakly positive”; for `CC(Cl)(Cl)[N+](=O)[O-]`, “active; positive”; for `S=P(N1CC1)(N1CC1)N1CC1`, “active; positive”. Take `Cc1cc([N+](=O)[O-])ccc1N`: the outcome is “active; positive”. For `O=C1Nc2ccc(Cl)cc2[C@@](C#CC2CC2)(C(F)(F)F)O1` the value was “inactive; negative”; for `CC(=O)Nc1ccc(C(=O)O)cc1`, “inactive; negative”; for `O=C(O)c1ccc([N+](=O)[O-])cc1`, “active; positive”.

For the molecule `CCCCC(CC)CO` (stereo not given), the outcome is “inactive; negative”.

Turning to `CCOP(=S)(OCC)Oc1ccc([N+](=O)[O-])cc1`, the outcome is “active; weakly positive”. For `O=S(=O)(O)C(F)(F)C(F)(F)C(F)(F)C(F)(F)C(F)(F)C(F)(F)C(F)(F)C(F)(F)F` the value was “inactive; negative”; for `CCc1cccc(N)c1`, “inactive; negative”. As for `CN(C)CCCN`, the entry is “inactive; negative”; as for `CN(CCO)CCO`, “inactive; negative”; as for `CN`, “inactive; negative”. For `Cc1ccc(NC(N)=O)cc1` the value was “inactive; negative”; for `CCCCC(CC)COC(=O)c1ccc(C(=O)OCC(CC)CCCC)c(C(=O)OCC(CC)CCCC)c1` (stereo not given), “inactive; negative”. On to `CN1CCCC1=O`, for which the outcome was “inactive; negative”. For `C=CC(=O)OCC` the value was “active; weakly positive”; for `SCCc1cnccn1`, “inactive; negative”; for `O.O.O.O.O.O.O.O=S(=O)([O-])[O-].[Co+2]`, “active; weakly positive”.

Consider `CNC(=O)c1ccccc1`, for which the outcome is “inactive; negative”. As for `C=CCOC(=O)COCCC(C)C`, the outcome was “inactive; negative”. For `CCC[N+](=O)[O-]` the value was “inactive; negative”; for `Cc1cc(O)c2c(c1)C(=O)c1cc(O)cc(O)c1C2=O`, “active; positive”; for `CNCCS(=O)(=O)O`, “inactive; negative”. As to `O=C1OC(c2ccc(O)cc2)(c2ccc(OC3O[C@H](C(=O)O)[C@@H](O)[C@H](O)[C@H]3O)cc2)c2ccccc21` (stereo not given in full), the outcome is “inactive; negative”.

Regarding `Clc1cccc(Cl)c1Cl`, the outcome was “inactive; negative”.

As to `C[CH2][Pb]([Cl])([CH2]C)[CH2]C`, the outcome is “inactive; negative”.

With `COc1cc([N+](=O)[O-])ccc1N=NC(C(C)=O)C(=O)Nc1ccccc1OC` (stereo not given), the outcome is “inactive; negative”. For `C=Cc1ccccn1` the value was “active; positive”. As for `CN(C(=O)CN(CCO)CC(=O)N(C)C(C)(C)Cc1ccccc1)C(C)(C)Cc1ccccc1`, the entry is “inactive; negative”; as for `O=C(O)c1cc(N=Nc2ccc([N+](=O)[O-])cc2)ccc1O`, “active; positive”; as for `CN(C)C(=O)Nc1ccc(Cl)cc1`, “inactive; negative”.

For `O=c1c2ccccc2c(=O)c2c1ccc1c2[nH]c2c3c(=O)c4ccccc4c(=O)c3c3[nH]c4c(ccc5c(=O)c6ccccc6c(=O)c54)c3c12`, the outcome was “inactive; negative”. In the case of `C=C(Cl)CCl`, the outcome is “active; positive”. For `CS(=O)(=O)OCCCCOS(C)(=O)=O` the value was “active; positive”. For `Nc1ccccc1C(=O)OC1CCCCC1` the value was “inactive; negative”; for `N#CC(O)c1ccccc1` (stereo not given), “inactive; negative”; for `CN(C)c1ccc(Cc2ccc(N(C)C)cc2)cc1`, “active; positive”. For `COc1cc(CNC(=O)CCCC/C=C/C(C)C)ccc1O` the value was “inactive; negative”; for `S=c1[nH]c2ccccc2[nH]1`, “inactive; negative”; for `O=NN(CCO)CCO`, “active; positive”.

`c1ccc2scnc2c1`: the outcome is “inactive; negative”. As for `OCCN(CCO)CCO`, the entry is “inactive; negative”; as for `O=C1CCCCCN1`, “inactive; negative”; as for `O=C1CCCO1`, “inactive; negative”. For `Cc1ccc(C)c([N+](=O)[O-])c1` the value was “active; positive”. As for `NCCNCCN`, the entry is “inactive; negative”. As to `CCCCCCCCCCCCS`, the outcome was “inactive; negative”. As for `Cc1cccc2cccnc12`, the entry is “active; positive”; as for `Cl/C=C/Cl`, “inactive; negative”; as for `O=C=Nc1ccc(Cc2ccc(N=C=O)cc2)cc1`, “inactive; negative”. For `Nc1cc(Cl)c(N)c(Cl)c1` the value was “active; positive”. As for `CCCCCO`, the entry is “inactive; negative”. As to `CCCCCCC(=O)O`, the outcome was “inactive; negative”.
